Common to all, as to type: biochemical
For one assay, the target named is T1, panel of kinases (Homo sapiens, UniProt P51813).
T1 sequence (P51813 1-675): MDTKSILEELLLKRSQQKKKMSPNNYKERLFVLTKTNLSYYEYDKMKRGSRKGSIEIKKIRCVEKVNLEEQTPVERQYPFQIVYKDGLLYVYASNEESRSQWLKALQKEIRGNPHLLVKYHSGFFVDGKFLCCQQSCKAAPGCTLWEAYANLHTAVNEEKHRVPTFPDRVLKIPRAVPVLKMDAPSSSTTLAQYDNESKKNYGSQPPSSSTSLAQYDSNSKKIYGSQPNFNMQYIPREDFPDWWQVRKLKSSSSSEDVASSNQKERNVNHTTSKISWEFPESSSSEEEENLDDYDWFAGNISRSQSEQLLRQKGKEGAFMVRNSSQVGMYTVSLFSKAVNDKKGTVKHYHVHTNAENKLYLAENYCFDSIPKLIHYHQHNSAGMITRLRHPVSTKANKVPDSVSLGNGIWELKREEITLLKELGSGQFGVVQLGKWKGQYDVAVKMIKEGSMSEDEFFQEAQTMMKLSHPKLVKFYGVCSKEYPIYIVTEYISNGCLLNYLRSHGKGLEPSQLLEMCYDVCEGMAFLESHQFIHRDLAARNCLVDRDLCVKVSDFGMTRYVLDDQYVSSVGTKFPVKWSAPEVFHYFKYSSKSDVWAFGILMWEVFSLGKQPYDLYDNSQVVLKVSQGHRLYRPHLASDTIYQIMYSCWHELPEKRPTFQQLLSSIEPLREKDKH
Nature of the assay: Inhibition of a panel of kinases (in vitro HotSpot kinase assay, 33P-ATP, 1 μM ATP), other kinases. To be noted: BMX wild-type, read-out: BMX-WT IC50. Put shortly:
(§1)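 Radiometric read-out: 33P transfer to a suitable substrate by each purified enzyme, ATP at 1 μM. Values are degree of inhibition.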

Another assay deals with T2, TEC (Homo sapiens, UniProt P42680).
T2 sequence (P42680 1-631): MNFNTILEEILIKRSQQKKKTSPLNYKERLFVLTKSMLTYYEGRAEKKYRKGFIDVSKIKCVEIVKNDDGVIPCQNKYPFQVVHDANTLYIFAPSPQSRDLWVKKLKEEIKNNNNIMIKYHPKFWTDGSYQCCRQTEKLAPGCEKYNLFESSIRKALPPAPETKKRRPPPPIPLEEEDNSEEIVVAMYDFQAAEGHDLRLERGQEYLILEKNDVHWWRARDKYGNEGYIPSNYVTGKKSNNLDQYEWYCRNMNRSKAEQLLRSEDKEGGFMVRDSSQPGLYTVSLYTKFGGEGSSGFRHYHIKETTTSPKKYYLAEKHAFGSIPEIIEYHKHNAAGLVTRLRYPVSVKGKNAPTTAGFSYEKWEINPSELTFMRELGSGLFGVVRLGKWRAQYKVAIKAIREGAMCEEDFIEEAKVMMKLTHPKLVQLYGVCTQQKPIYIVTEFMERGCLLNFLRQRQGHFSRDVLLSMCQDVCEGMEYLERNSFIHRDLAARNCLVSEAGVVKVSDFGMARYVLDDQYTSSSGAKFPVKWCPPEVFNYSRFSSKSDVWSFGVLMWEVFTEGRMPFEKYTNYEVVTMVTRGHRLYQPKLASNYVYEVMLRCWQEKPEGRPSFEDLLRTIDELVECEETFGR
Nature of the assay: Inhibition of a panel of kinases (in vitro HotSpot kinase assay, 33P-ATP, 1 μM ATP). The following applies: for IC50: HotSpot kinase assay, 1 μM ATP; for TEC/Btk: ratio of TEC IC50 to Btk IC50 (selectivity). A digest of the protocol:
as §1

The next assay deals with T3, Btk (Homo sapiens, UniProt Q06187).
T3 construct: purified from insect cells as a full-length construct containing a N-terminal 6X-His tag; His6 (N); made in house; host or cells: insect cells (Method C)
As to the kind of experiment: Btk in vitro inhibitory activity (one of Method A TR-FRET, Method B electrophoretic mobility shift, Method C radiometric filter binding). Put shortly:
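Three alternative formats were used. A radiometric filter-binding read used 8 nM full-length His-BTK with 0.2 mg/mL poly(Glu-Tyr) 4:1 (C); microfluidic separation of 1 μM FAM-peptide by 1 nM BTK gave IC50 from 12-point curves (B); TR-FRET at Km ATP, 0.5 nM Btk, gave Ki(app)-derived IC50 (A).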
A general note: Mobility shift assays separate free from complexed probe on a gel.

Where [1] appears, read: wild-type Btk, read-out: Btk-WT IC50.

Like-named read-outs stand apart in the source and are kept apart here.

T3 sequence (Q06187 whole entry): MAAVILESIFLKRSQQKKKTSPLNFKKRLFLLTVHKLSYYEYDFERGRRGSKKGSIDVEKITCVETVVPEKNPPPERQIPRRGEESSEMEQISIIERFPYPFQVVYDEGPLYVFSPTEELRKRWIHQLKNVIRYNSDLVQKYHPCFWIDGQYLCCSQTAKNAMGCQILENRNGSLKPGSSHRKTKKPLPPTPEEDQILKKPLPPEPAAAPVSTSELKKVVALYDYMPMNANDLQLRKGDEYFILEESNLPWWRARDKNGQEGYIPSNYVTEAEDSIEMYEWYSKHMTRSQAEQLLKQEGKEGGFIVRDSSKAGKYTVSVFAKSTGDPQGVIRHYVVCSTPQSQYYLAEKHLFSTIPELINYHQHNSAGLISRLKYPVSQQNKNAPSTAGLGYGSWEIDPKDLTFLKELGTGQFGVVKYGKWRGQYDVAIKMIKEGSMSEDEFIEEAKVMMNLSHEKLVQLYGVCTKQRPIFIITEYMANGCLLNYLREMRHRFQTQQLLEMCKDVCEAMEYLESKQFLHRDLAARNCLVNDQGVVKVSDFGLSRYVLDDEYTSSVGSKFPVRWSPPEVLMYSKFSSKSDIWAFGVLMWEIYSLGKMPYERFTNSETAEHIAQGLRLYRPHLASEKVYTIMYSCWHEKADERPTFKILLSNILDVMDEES

In general, IC50 refers to the concentration at which inhibition is half-maximal. Turning to `C=CC(=O)N1CC[C@@H](Nc2n[nH]c3nccc(-c4ccc([C@H](C)NC(=O)c5noc(C(C)(C)C)n5)cc4)c23)C1` [Example 95, 5-tert-butyl-N-[(1S)-1-[4-(3-{[(3R)-1-(prop-2-enoyl)pyrrolidin-3-yl]amino}-1H-pyrazolo[3,4-b]pyridin-4-yl)phenyl]ethyl]-1,2,4-oxadiazole-3-carboxamide], the IC50 at panel of kinases came out at 774 nM; on TEC, 924 nM; at Btk (setting [1]), 67.9 nM. In addition, the TEC/Btk at TEC worked out at 14.

As for `C=CC(=O)N1CC[C@@H](Nc2n[nH]c3nccc(-c4ccc(CNC(=O)c5nn6c(c5C)OCCC6)c(F)c4)c23)C1` [Example 376, N-{[2-fluoro-4-(3-{[(3R)-1-(prop-2-enoyl)pyrrolidin-3-yl]amino}-1H-pyrazolo[3,4-b]pyridin-4-yl)phenyl]methyl}-3-methyl-6,7-dihydro-5H-pyrazolo[5,1-b][1,3]oxazine-2-carboxamide], the values for the IC50 at panel of kinases, at TEC and on Btk (setting [1]) were 115 nM, 344 nM and 7.99 nM, respectively.

With `C=CC(=O)N1CC(Nc2n[nH]c3nccc(-c4ccc(CNC(=O)c5ccc(C(C)(C)C)cc5)c(F)c4)c23)C1` [Example 106, 4-tert-butyl-N-{[2-fluoro-4-(3-{[1-(prop-2-enoyl)azetidin-3-yl]amino}-1H-pyrazolo[3,4-b]pyridin-4-yl)phenyl]methyl}benzamide], the IC50 at panel of kinases, at TEC and on Btk (setting [1]) was more than 10000 nM each time.

As for `CC(=O)N[C@@H]1CCN(c2n[nH]c3nccc(-c4ccc(CNC(=O)c5ccc(C(C)(C)O)cn5)c(F)c4)c23)C1` [Example 424, N-[(4-{3-[(3R)-3-acetamidopyrrolidin-1-yl]-1H-pyrazolo[3,4-b]pyridin-4-yl}-2-fluorophenyl)methyl]-5-(2-hydroxypropan-2-yl)pyridine-2-carboxamide], the figures for the IC50 at panel of kinases, on TEC and at Btk (setting [1]) were 6840 nM, 5440 nM and 28.8 nM, respectively.

Turning to `CC(C)(C)c1nc(C(=O)NCc2ccc(-c3ccnc4[nH]nc(N[C@@H]5CCNC5)c34)cc2F)no1` [Compound 2, (R)-5-(tert-butyl)-N-(2-fluoro-4-(3-(pyrrolidin-3-ylamino)-1H-pyrazolo[3,4-b]pyridin-4-yl)benzyl)-1,2,4-oxadiazole-3-carboxamide], the IC50 was determined as 1980 nM on panel of kinases, 950 nM at TEC and 11.6 nM at Btk (setting [1]). Also, the TEC/Btk at TEC is listed as 82.

As for `C[C@@H](NC(=O)c1nc(C(C)(C)C)no1)c1ccc(-c2ccnc3[nH]nc(N[C@@H]4CC[C@H](C)N(C(=O)N(C)C)C4)c23)cc1F` [Example 193, (2S,5R)-5-{[4-(4-{(1R)-1-[(3-tert-butyl-1,2,4-oxadiazole-5-carbonyl)amino]ethyl}-3-fluorophenyl)-1H-pyrazolo[3,4-b]pyridin-3-yl]amino}-N,N,2-trimethylpiperidine-1-carboxamide], the figures for the IC50 on panel of kinases, on TEC and at Btk (setting [1]) were 1040 nM, 381 nM and 0.355 nM, respectively. Further, the TEC/Btk on TEC amounted to 1073.

Turning to `CC(C)(C)CCC(=O)NCc1ccc(-c2ccnc3[nH]nc(N[C@H]4CC[C@H](O)CC4)c23)cc1F` [Compound 19, N-{[2-fluoro-4-(3-{[(1r,4r)-4-hydroxycyclohexyl]amino}-1H-pyrazolo[3,4-b]pyridin-4-yl)phenyl]methyl}-4,4-dimethylpentanamide], the IC50 at panel of kinases was 7460 nM; on TEC, more than 10000 nM; at Btk (setting [1]) it was more than 10000 nM.

`CC(C)(C#N)c1cc(C(=O)NCc2ccc(-c3ccnc4[nH]nc(N5CC[C@@H](N)C5)c34)cc2F)no1` [Example 401, N-[(4-{3-[(3R)-3-aminopyrrolidin-1-yl]-1H-pyrazolo[3,4-b]pyridin-4-yl}-2-fluorophenyl)methyl]-5-(2-cyanopropan-2-yl)-1,2-oxazole-3-carboxamide]: the values for the IC50 at panel of kinases, against TEC and on Btk (setting [1]) were 885 nM, 1280 nM and 33.8 nM, respectively.

Consider `C=CC(=O)N1CC[C@@H](Nc2n[nH]c3nccc(-c4ccc(C5(NC(=O)c6noc(C(C)(C)C)n6)CC5)cc4)c23)C1` [Compound 4, (R)—N-(1-(4-(3-((1-acryloylpyrrolidin-3-yl)amino)-1H-pyrazolo[3,4-b]pyridin-4-yl)phenyl)cyclopropyl)-5-(tert-butyl)-1,2,4-oxadiazole-3-carboxamide], for which the results for the IC50 on panel of kinases, at TEC and at Btk (setting [1]) were 132 nM, 103 nM and 0.559 nM, respectively. Further, the TEC/Btk at TEC came out at 184.

Take `CC(C)(C)c1nc(C(=O)NCc2ccc(-c3ccnc4[nH]nc(N[C@H]5CCNC5)c34)cc2F)no1` [Compound 50, 5-tert-butyl-N-{[2-fluoro-4-(3-{[(3S)-pyrrolidin-3-yl]amino}-1H-pyrazolo[3,4-b]pyridin-4-yl)phenyl]methyl}-1,2,4-oxadiazole-3-carboxamide]: the figures for the IC50 at panel of kinases, at TEC and at Btk (setting [1]) were 7440 nM, 2960 nM and 3.2 nM, respectively. The TEC/Btk at TEC was determined as 925.

Turning to `CN(C)C(=O)N1CC[C@@H](Nc2n[nH]c3nccc(-c4ccc(CNC(=O)c5cc(C(C)(C)C)on5)c(F)c4)c23)C1` [Example 115, 5-tert-butyl-N-{[4-(3-{[(3R)-1-(dimethylcarbamoyl)pyrrolidin-3-yl]amino}-1H-pyrazolo[3,4-b]pyridin-4-yl)-2-fluorophenyl]methyl}-1,2-oxazole-3-carboxamide], the 50% inhibitory concentration (IC50) on panel of kinases was determined as 6450 nM; at TEC, 6320 nM; on Btk (setting [1]), 25.7 nM. Further, the TEC/Btk on TEC was found to be 246.

On to `CC(C)(C)c1nc(C(=O)NC2(c3ccc(-c4ccnc5[nH]nc(N[C@@H]6CCNC6)c45)cc3)CC2)no1` [Compound 1, 5-tert-butyl-N-{1-[4-(3-{[(3R)-pyrrolidin-3-yl]amino}-1H-pyrazolo[3,4-b]pyridin-4-yl)phenyl]cyclopropyl}-1,2,4-oxadiazole-3-carboxamide], for which the IC50 was more than 10000 nM at panel of kinases, more than 10000 nM on TEC and 57.7 nM at Btk (setting [1]). Besides, the TEC/Btk at TEC is given as more than 100.

Consider `C[C@@H](NC(=O)c1nc(C(C)(C)C)no1)c1ccc(-c2ccnc3[nH]nc(N4CCNCC4)c23)cc1` [Example 238, 3-tert-butyl-N-[(1R)-1-{4-[3-(piperazin-1-yl)-1H-pyrazolo[3,4-b]pyridin-4-yl]phenyl}ethyl]-1,2,4-oxadiazole-5-carboxamide], for which the IC50 turned out to be 2670 nM on panel of kinases, 4610 nM on TEC and 4.24 nM on Btk (setting [1]). In addition, the TEC/Btk at TEC is 1087.

As to `C=CC(=O)N[C@H]1CC[C@H](Nc2n[nH]c3nccc(-c4ccc(CNC(=O)c5noc(C(C)(C)C)n5)c(F)c4)c23)CC1` [Example 152, 5-tert-butyl-N-{[2-fluoro-4-(3-{[(1r,4r)-4-(prop-2-enamido)cyclohexyl]amino}-1H-pyrazolo[3,4-b]pyridin-4-yl)phenyl]methyl}-1,2,4-oxadiazole-3-carboxamide], the IC50 was 496 nM on panel of kinases; 2680 nM on TEC; less than 10 nM at Btk (method is one of A, B or C, not stated which, read-out: IC50 values against Btk); 3.41 nM at Btk (setting [1]).
